From US20220211735A1, “MEDICAMENT AND COMBINATION PRODUCT USED FOR PREVENTING, ALLEVIATING AND/OR TREATING FIBROSIS, AND USE THEREOF” (priority 2019, published 2022)

Columns and labels:
[1] = system: type I collagen α1 promoter COL1A1P; assay: COL1A1 promoter-luciferase reporter gene activity in LX2-COL cells; format: cell-based, human; settings: 24 hours
Procedure: The constructed monoclonal cells LX2-COL stably expressing the type I collagen al promoter COL1A1P were spread on a 96-well plate with 2×10^4 cells per well. After the cell confluence is about 90%, different concentrations of medicament C (using Carrimycin or Isovalerylspiramycin I) were added, and each group of experiments has 4 replicate holes. Follow the instructions of Bright-Glo™ Luciferase Assay System, the medium in wells were removed after 24 hours, and 50 μl/well of any medium was added to each well. 50 μl of luciferase substrate was added to each well, and detection was performed after 2 min.

[2] = system: COL1A1, TGFB1, ACTA2 mRNA in LX-2 cells; assay: Real-time PCR of main fibrosis markers in LX-2 cells induced by TGFβ1; format: cell-based, human; settings: TGF-β1 2 ng/ml, 24 hours
Procedure: (§1) TGFβ1 induced LX-2 cells and medicament C (using Climycin (HB) or Isovalerylspiramycin I (HY)) administration treatment: LX-2 cells were cultured in DMEM, High Glucose, GlutaMAX™ (Gibco10566016) medium containing 10% fetal bovine serum and mixture of 1% […] and 1% penicillin at 37 DEG C and 5% CO2. 1×10^5 cells per well were plated on a 6-well plate. After 24 hours of culture, the original medium in the 6-well plate was removed by a vacuum pump and added with DMEM medium without 10% fetal bovine serum. After starvation for 24 hours, TGF-β1 (2 ng/ml) was added to induce cell, and different concentration gradients of Carrimycin or Isovalerylspiramycin I were added at the same time, the concentrations were 10 μmol/L and 20 μmol/L respectively. A control group (without adding TGF-β1 induction), TGF-β1 induction group (only TGF-β1 induction) and TGF-β1 induction administration group (both TGF-β1 induction and medicament C treatment) were set.
After culturing for 24 hours, the medium was discarded, and the total RNA of LX-2 cells were extracted according to the TRIzol instructions. Following the instructions of Roche Transcriptor First Strand cDNA Synthesis Kit, the LX-2 total RNA were to reverse transcribed into cDNA. […]

[3] = system: COL1A1, TGFβ1, α-smooth muscle actin protein in LX-2 cells; assay: Western Blot of main fibrosis markers in LX-2 cells induced by TGFβ1; format: cell-based, human; settings: 20 μmol/L, TGF-β1 2 ng/ml, 24 hours
Procedure: as §1
After the cells were induced by TGFβ1 and continued to be cultured for 24 hours, 1 ml of Ripa lysis solution (containing 1% PMSF) was added to each well of the 6-well plate to extract the protein. And the protein concentration was determined by the BCA method. The sample was loaded at 25 μg/20 μl per well. […]

[4] = system: COL1A1, TGFB1, ACTA2, MMP2 mRNA in lung fibroblasts MRC-5; assay: Real-time PCR of main fibrosis markers in lung fibroblasts MRC-5 induced by TGFβ1; format: cell-based; settings: TGF-β1 3 ng/ml, 24 hours
Procedure: Method for TGFβ1 inducing lung fibroblasts MRC-5 and administrating Carrimycin or Isovalerylspiramycin I comprises: MRC-5 was cultured in a MEM (Gibco 11095-080) culture medium containing 10% fetal bovine serum, a mixture of 1% penicillin and 1% streptomycin and 1% non-essential amino acids at 37 DEG C and 5% CO2, and was plated in a 6-well according to 3×10^5 cells per well. After culturing for 24 hours, the original culture medium in the 6-well plate was removed by a vacuum pump, and MEM culture medium without 10% fetal bovine serum was added to be starvation culture for 24 hours. And then TGF-β1 (3 ng/ml) induction was added, and at the same time different concentration gradients of Carrimycin and Isovalerylspiramycin I were added. The concentrations were 10 μmol/L, 20 μmol/L, 40 μmol/L. The following groups were set, control group (without adding TGF-β1 induction), TGF-β1 induction group (only TGF-β1 induction is added) and TGF-β1 induction administration group (both adding TGF-β1 induction and treating with Carrimycin or Isovalerylspiramycin I).
After culturing for 24 hours, the culture medium was discarded, and the Total RNA of MRC-5 cells were extracted according to the operation steps of the TRIzol instructions. According to the operation steps of the instructions of Roche Transcriptor First Strand cDNA Synthesis Kit, Total RNA of […] was reversely transcribed into cDNA. The cDNA, sterile water, Roche FastStart Universal Probe Master (Rox) and ABI TaqMan probes (GAPDH, COL1A1, TGFB1, ACTA2, MMP2) were prepared into a 20 μl reaction system, and the ABI 7500 Fast Real-time PCR System was used for detection. GAPDH was used as an internal control to analyze the results.

[5] = system: COL1A1, TGFB1, ACTA2, MMP2 mRNA in skin fibroblasts CCC-ESF-1; format: cell-based; settings: CCC-ESF-1, 20 and 40 μmol/L, TGF-β1 5 ng/ml, 24 hours
Procedure: Method for TGFβ1 inducing skin fibroblasts CCC-ESF-1 and administrating Carrimycin and Isovalerylspiramycin I comprises: CCC-ESF-1 was cultured in DMEM, High Glucose, GlutaMAX™ (Gibco 10566016) culture medium containing 10% fetal bovine serum, mixture of 1% penicillin and 1% streptomycin at 37 DEG C and 5% CO2, and was plated in a 6-well according to 3×10^5 cells per well. After culturing for 24 hours, the original culture medium in the 6-well plate was removed by a vacuum pump, and DMEM culture medium without 10% fetal bovine serum was added to be starvation culture for 24 hours. And then TGF-β1 (5 ng/ml) induction was added, and at the same time different concentration gradients of Carrimycin and Isovalerylspiramycin I were added. The concentrations were 20 μmol/L and 40 μmol/L. The following groups were set, control group (without adding TGF-β1 induction), TGF-β1 induction group (only TGF-β1 induction is added) and TGF-β1 induction administration group (both adding TGF-β1 induction and treating with Carrimycin or Isovalerylspiramycin I).
After culturing for 24 hours, the culture medium was discarded, and the Total RNA of […] were extracted according to the operation steps of the TRIzol instructions. According to the operation steps of the instructions of Roche Transcriptor First Strand cDNA Synthesis Kit, Total RNA of LX-2 was reversely transcribed into cDNA. […]

[6] = in vivo; cited from earlier work

Compound | luciferase luminescence (COL1A1 promoter activity) ([1]; 40 μM) | inhibitory effect on the activity of the COL1A1 promoter ([1]; LX2-COL cells, luciferase) | inhibitory effect on COL1A1, TGFB1, and ACTA2 at the mRNA level ([2]; 20 μmol/L) | expression of COL1A1, TGFB1, and ACTA2 (mRNA) ([2]; with the increase of the doses (10 and 20 μmol/L)) | expression of marker proteins COL1A1, TGFβ1, α-smooth muscle actin [3] | effect of inhibiting COL1A1, TGFB1, and ACTA2 at the mRNA level ([4]; MRC-5, 40 μmol/L) | effect of inhibiting COL1A1 at the mRNA level ([4]; MRC-5, 40 μmol/L) | expression of COL1A1 (mRNA) ([4]; MRC-5, with the increase of the dose (10, 20, 40 μmol/L)) | inhibition of COL1A1, TGFB1, ACTA2, and MMP2 (mRNA) [5] | T1/2β [6]
CO[C@@H]1[C@@H](O[C@@H]2O[C@H](C)[C@@H](O[C@H]3C[C@@](C)(O)[C@@H](OC(=O)CC(C)C)[C@H](C)O3)[C@H](N(C)C)[C@H]2O)[C@@H](CC=O)C[C@@H](C)[C@@H](O[C@H]2CC[C@H](N(C)C)[C@@H](C)O2)/C=C/C=C/C[C@@H](C)OC(=O)C[C@H]1O [Isovalerylspiramycin I] | decreased most significantly | significant inhibitory effect | best inhibitory effect | decreased | significantly inhibited | the best | the best | decreases | significantly inhibit | 
Carrimycin |  |  |  |  |  |  |  |  |  | 23 to 27 h
